Structures can show the parent of a compound that is named as a salt. Where two headings read alike, the source gives them in different places.
Tests used:
Format in all cases: cell-based
[1] = biological target: T1, HvirOR13 (HR13) (Heliothis virescens, UniProt Q6A1K1); assay: two-electrode voltage clamp in Xenopus oocytes
T1 construct: full ORF (AJ748328) in pGEMHE, expressed in Xenopus oocytes; with HvirOrco (HR2)
T1 sequence (Q6A1K1 1-425): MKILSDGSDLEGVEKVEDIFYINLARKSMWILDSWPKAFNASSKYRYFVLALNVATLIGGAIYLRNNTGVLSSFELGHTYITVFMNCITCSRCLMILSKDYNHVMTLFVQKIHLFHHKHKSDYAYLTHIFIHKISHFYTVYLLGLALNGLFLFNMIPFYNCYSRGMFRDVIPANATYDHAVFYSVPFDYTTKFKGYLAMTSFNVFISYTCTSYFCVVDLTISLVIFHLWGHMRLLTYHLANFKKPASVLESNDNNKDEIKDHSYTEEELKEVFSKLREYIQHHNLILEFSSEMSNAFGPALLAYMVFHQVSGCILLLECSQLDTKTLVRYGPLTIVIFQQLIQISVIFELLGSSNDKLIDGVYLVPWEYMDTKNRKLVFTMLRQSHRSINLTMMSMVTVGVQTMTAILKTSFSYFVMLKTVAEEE
T1 sequence (Q8MMI4 1-472 partner): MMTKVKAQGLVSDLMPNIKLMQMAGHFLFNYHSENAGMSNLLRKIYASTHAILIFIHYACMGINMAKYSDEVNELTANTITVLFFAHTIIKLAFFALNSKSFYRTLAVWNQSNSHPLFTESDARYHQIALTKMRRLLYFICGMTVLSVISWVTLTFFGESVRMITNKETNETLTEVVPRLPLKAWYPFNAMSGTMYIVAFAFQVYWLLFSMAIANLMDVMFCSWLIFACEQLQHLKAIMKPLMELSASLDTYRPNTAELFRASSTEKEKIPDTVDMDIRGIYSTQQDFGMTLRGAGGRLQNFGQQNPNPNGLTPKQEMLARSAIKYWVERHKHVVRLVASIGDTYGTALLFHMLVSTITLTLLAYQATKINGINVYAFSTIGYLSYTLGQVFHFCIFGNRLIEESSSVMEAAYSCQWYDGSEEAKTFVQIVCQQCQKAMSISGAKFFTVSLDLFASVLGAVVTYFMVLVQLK

[2] = biological target: T2, AtraOR1 (Amyelois transitella, UniProt J7FXC2); assay: two-electrode voltage clamp in Xenopus oocytes
T2 construct: full ORF (428 residues, JX173648) in pGEMHE, expressed in Xenopus oocytes; with AtraOrco
T2 sequence (J7FXC2 1-427): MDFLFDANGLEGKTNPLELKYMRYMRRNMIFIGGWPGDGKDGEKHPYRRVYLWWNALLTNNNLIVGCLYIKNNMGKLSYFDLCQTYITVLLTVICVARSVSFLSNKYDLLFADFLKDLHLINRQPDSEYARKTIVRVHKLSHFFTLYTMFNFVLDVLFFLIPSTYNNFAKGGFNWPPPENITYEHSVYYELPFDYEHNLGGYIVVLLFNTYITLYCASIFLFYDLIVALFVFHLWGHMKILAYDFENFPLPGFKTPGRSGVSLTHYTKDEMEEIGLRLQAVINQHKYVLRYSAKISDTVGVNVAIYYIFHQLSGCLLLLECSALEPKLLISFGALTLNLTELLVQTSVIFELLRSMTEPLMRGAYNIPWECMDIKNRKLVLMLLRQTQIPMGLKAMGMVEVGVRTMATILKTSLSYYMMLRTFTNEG
T2 sequence (J7G1V0 1-474 partner): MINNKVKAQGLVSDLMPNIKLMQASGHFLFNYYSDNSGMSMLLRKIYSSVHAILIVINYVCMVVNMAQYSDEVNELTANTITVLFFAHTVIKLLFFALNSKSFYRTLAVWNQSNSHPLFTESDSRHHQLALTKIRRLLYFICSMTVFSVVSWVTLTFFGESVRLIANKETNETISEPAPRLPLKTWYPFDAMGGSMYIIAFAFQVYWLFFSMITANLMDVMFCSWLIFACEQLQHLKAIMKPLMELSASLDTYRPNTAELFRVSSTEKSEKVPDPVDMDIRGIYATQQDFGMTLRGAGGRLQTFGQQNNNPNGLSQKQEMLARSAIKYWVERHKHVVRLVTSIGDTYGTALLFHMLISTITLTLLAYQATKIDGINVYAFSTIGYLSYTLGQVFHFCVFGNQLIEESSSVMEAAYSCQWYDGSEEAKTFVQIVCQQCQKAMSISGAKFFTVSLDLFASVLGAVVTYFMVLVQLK

[3] = biological target: T2, AtraOR1; assay: two-electrode voltage clamp in Xenopus oocytes, screened at […]

CCCC/C=C\CCCCCCCCOC=O [Z9-14OFor, (9Z)-tetradecen-1-yl formate]
EC50 [1]: 33 nM

CC/C=C\C=C/CCCCCCCCOC=O [Z9Z11-14OFor, (9Z,11Z)-tetradecadien-1-yl formate]
EC50 [2]: 90 nM

CCCC/C=C\CCCCCCCCCC=O [Z11-16Ald, (11Z)-hexadecenal]
EC50 ([1]; read-out: EC50): 150 nM

CC/C=C\C=C/CCCCCCCCCC=O [Z11Z13-16Ald, (11Z,13Z)-hexadecadienal]
EC50 [2]: 499 nM

CC/C=C\C=C/CCCCCCCCCCO [Z11Z13-16OH, (11Z,13Z)-hexadecadien-1-ol]
two-electrode voltage clamp in Xenopus oocytes, screened at 100 μM [3]: AtraOR1•AtraOrco-expressing oocytes showed moderate response to Z11Z13-16OH

— paper PMC3401280, “Moth Sex Pheromone Receptors and Deceitful Parapheromones” (PLoS ONE, 2012)
